Consider two compounds from paper PMC4097363, “Trace amines inhibit insect odorant receptor function through antagonism of the co-receptor subunit” (F1000Research, 2014).

The target in one test is Cqui\Orco (Culex quinquefasciatus, UniProt Q309I4). Briefly: Antagonism of OLC12 activation of Orco in Xenopus oocytes. It counts as cell-based. The note with it: for inhibition at 100 µM: Cqui\Orco activated by 30µM OLC12 (~EC5), 100µM of each amine, mean ± SEM, n = 3-10, read-out: inhibition of the OLC12 response; for IC50: read-out: IC 50 for inhibition of Cqui\Orco activation. Here is the method:
(§1) Follicle cells were removed by treatment with collagenase B (Boehringer Mannheim) for 2 hours at room temperature. Capped cRNA encoding each OR subunit was generated using mMessage mMachine kits (Ambion). For heteromeric ORs, 25 ng of cRNA encoding each OR subunit was injected into Stage V-VI Xenopus oocytes. For expression of Orco homomers, 50 ng of cRNA was injected. Oocytes were incubated at 18°C in Barth's saline (in mM: 88 NaCl, 1 KCl, 2.4 NaHCO 3, 0.3 CaNO 3, 0.41 CaCl 2, 0.82 MgSO 4, 15 HEPES, pH 7.6, and 150µg/ml ceftazidime) for 2–5 days prior to electrophysiological recording.
(§2) Odorant and Orco ligand induced currents were recorded under two-electrode voltage clamp, using an automated parallel electrophysiology system (OpusExpress 6000A, Molecular Devices). Oocytes were perfused with ND96 (in mM: 96 NaCl, 2 KCl, 1 CaCl 2, 1 MgCl 2, 5 HEPES, pH 7.5). Orco ligands were prepared as 50 or 100 mM stock solutions in DMSO and then diluted into ND96 on the day of the experiment. Odorants were prepared as 100 mM stock solutions in DMSO and then diluted into ND96. Unless otherwise noted, applications were for 60 sec at a flow rate of 1.0 ml/min, with extensive washing in ND96 at 4.6 ml/min between applications. Micropipettes were filled with 3 M KCl and had resistances of 0.2–2.0 MΩ. The holding potential was -70 mV. Current responses, filtered (4-pole, Bessel, low pass) at 20 Hz (-3 db) and sampled at 100 Hz, were captured and stored using OpusXpress 1.1 software (Molecular Devices).
To screen for agonist activity, oocytes were exposed to 30 sec applications of candidate compounds with 5 min washes between applications ( Figure 2A). For the concentration-response protocol ( Table 1), applications were for 20 sec at a flow rate of 1.65 ml/min. To measure antagonist activity at Orco ( Figure 2B, 2C, Figure 3, Figure 4A and Figure 5A), oocytes were exposed to two 60 sec applications of the synthetic Orco agonist OLC12 (2-((4-Ethyl-5-(4-pyridinyl)-4H-1,2,4-triazol-3-yl)sulfanyl)-N-(4-isopropylphenyl)acetamide) with 4 min washes between applications. Oocytes were then exposed to a 90 sec application of antagonist candidate, immediately followed by a 60 sec co-application of antagonist candidate and OLC12. The current response in the presence of antagonist candidate was compared to the mean of the preceding two responses to OLC12 alone and is presented as a percentage.
Initial analysis of electrophysiological data was done using Clampfit 9.1 software (Molecular Devices). Curve fitting and statistical analyses were done using Prism 5 (Graphpad). Concentration-inhibition data were fit to the equation: I = I max/(1+ (X/IC 50) ^n) where I represents the current response at a given concentration of inhibitor, X; I max is the maximal response in the absence of inhibitor; IC 50 is the concentration of inhibitor present that still allows a half maximal response from odorant; n is the apparent Hill coefficient. Concentration-response data were fit to the equation: I = I max/(1+(EC 50/X) ^n) where I represents the current response at a given concentration of odorant, X; I max is the maximal response; EC 50 is the concentration of agonist yielding a half maximal response; n is the apparent Hill coefficient. Statistical significance (p<0.05) was assessed using a two-tailed unpaired t test, an F test, or a one-way analysis of variance followed by the Dunnett's post-test, as appropriate.

The subject of the next test is Onub\Orco+Onub\Or6. Briefly: Inhibition of odorant activation of heteromeric OR in Xenopus oocytes. It counts as cell-based, Ostrinia nubilalis. The note with it: activated by 1µM Z11-14:OAc; 10µM tryptamine or 100µM tyramine. The protocol:
as §1
as §2, with “Current responses, filtered (4-pole, Bessel, low pass) at 20 Hz (-3 db) and sampled at 100 Hz, were captured and stored using OpusXpress 1.1 software (Molecular Devices).” left out

The target in a further test is T1, Agam\Orco+Agam\Or48 (Anopheles gambiae, UniProt Q7QCC7).
T1 sequence (Q7QCC7 1-478): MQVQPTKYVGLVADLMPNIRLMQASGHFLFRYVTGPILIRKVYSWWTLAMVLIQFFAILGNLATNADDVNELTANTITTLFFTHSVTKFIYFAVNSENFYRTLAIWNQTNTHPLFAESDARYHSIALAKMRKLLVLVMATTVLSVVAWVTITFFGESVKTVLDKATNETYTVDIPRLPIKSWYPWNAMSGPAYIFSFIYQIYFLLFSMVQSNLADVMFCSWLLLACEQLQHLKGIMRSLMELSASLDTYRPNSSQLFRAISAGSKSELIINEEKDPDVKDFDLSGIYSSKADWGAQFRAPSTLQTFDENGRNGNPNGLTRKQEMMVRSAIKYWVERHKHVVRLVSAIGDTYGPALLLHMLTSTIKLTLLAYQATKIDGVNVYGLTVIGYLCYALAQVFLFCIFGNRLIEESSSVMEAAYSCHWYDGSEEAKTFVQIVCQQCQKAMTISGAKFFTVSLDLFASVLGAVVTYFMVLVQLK
Described as above. It counts as cell-based. The note with it: activated by 3µM 2-nonanone; 10µM tryptamine or 100µM tyramine. The protocol: as §1
as §2, with “Current responses, filtered (4-pole, Bessel, low pass) at 20 Hz (-3 db) and sampled at 100 Hz, were captured and stored using OpusXpress 1.1 software (Molecular Devices).” left out

As usually defined, the inhibition is the change of the read-out against control, counted positive when it falls.

Read-outs that look alike come from different tables or passages of the source.

Sequence of Cqui\Orco (Q309I4 entry or part of it): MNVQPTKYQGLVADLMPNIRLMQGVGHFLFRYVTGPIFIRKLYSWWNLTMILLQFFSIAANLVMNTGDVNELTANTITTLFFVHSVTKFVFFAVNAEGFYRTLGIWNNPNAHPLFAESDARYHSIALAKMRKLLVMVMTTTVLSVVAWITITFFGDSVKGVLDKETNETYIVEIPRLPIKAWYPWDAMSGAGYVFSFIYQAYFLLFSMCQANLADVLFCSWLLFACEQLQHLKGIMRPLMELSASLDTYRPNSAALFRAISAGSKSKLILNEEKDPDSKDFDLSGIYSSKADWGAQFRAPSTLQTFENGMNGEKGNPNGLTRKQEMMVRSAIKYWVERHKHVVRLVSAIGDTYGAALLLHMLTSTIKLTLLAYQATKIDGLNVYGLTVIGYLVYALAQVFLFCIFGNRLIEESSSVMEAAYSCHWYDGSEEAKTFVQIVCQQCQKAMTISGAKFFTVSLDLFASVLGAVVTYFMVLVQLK

With `NCCc1ccc(O)cc1` [tyramine], the “less potent than tryptamine (IC50 ratio)” value on Cqui\Orco (Cqui\Orco activated by 30µM OLC12) was found to be 33 fold. In addition, the inhibition at 100 µM on Cqui\Orco is 40 ± 5%. Moreover, on Cqui\Orco (activated by 30µM OLC12), the IC50 stood at 157 ± 22 µM. In addition, the “inhibition of odorant activation of the OR” value with Onub\Orco+Onub\Or6 is listed as “able to reduce odorant activation of these ORs, but was less effective than tryptamine”; against Agam\Orco+Agam\Or48 it was “able to inhibit odorant activation of each of these receptors, but was less effective than tryptamine”.
With `NCCc1c[nH]c2ccccc12` [tryptamine], the inhibition at 100 µM at Cqui\Orco worked out at 92 ± 2%. Besides, the “inhibition of OLC12 activation of Orco” value against Cqui\Orco (Cqui\Orco, 30µM OLC12, 10µM tryptamine) is reported as “inhibited OLC12 activation of Orco from each of these three insect species”. For the same compound, on Cqui\Orco (OLC12 increased from 30µM to 100µM), the “mechanism of antagonism of Cqui\Orco” value is on record as “competitive antagonist”. Also, the IC50 at Cqui\Orco (activated by 30µM OLC12) is 4.7 ± 0.7 µM; at Cqui\Orco (activated by 100µM OLC12), 143 ± 18 µM. The “inhibition of odorant activation of the OR” value is on record as “substantial inhibition of each receptor” in the test with Onub\Orco+Onub\Or6 and “able to inhibit odorant activation of the receptor” against Agam\Orco+Agam\Or48.
